{"source": "patent US20260232706A1", "about": "“1H-PYRAZOLE ANALOGUES AND METHODS AND USES THEREOF” (University of Manitoba, priority 2022, published 2026)", "key": {"[1]": {"tested_on": "SOD1-G37R mouse model of ALS, Het G37R (Line 42) mice", "assay": "Therapeutic efficacy in the SOD1-G37R mouse model of ALS", "type": "in vivo", "experimental": "Methods: B^5-EDR analogues were synthesized as described in Example 1. The specific methodology employed for this Example is described below. All the statistical analyses were carried out by using GraphPad Prism […] software (version 9.5.1 (733)), (GraphPad Software, La Jolla, CA). Statistical significance was performed using a two-tailed unpaired t-test used for body weight assessment, disease onset, survival, and weight loss comparisons. Kaplan-Meier survival analysis and log rank test was also used for survival analysis. For these in vivo studies, disease onset or symptom onset was defined by two criteria. The first criteria is defined by the loss of 10% body weight based on the highest recorded weight during the age of the mice after pre symptom onset treatment study. The loss of 10% body weight is often accompanied by appearance of symptoms of muscle weakness and the second criteria of disease onset, which is retrospectively defined as the age at which the mouse reaches peak weight. Mice were assessed and monitored daily by trained staff for weight and muscle weakness starting at 90 days of age i.e., well before clinical onset of disease. According to the common consensus among ALS scientific community, the disease onset is defined as a time when mice have reached their peak body weight well before the denervation induced muscle atrophy and weight loss.\nTransgenic mice carrying human G37R mutant SOD1 [B6.Cg Tg(SOD1*G37R)42Dpr/J] were obtained from the Jackson Laboratory (Bar Harbor, ME, USA). These mice were crossed with female mice with a C57BL/6 background for at least four generations. Colonies are maintained in the Central Animal Care Services (CACS), University of Manitoba. The mice were used in accordance with the Guide of Care and Use of Experimental Animals of the Canadian Council on Animal Care. Transgenic offspring were genotyped by PCR of DNA obtained from ear biopsies, see (ia) below, using a protocol provided by the Jackson Laboratory.\nFor these experiments, a set of experiments was carried out having two groups of mice: • Group 1: Sham treatment (1:20 DMSO/PBS); and • Group 2: NS-1-2 treatment (1:20 DMSO/PBS) (10 mg/kg body weight/day). For these experiments, age matched Het G37R (Line 42) mice were administered vehicle (1:20, DMSO:PBS) or treatment (NS-1-2; 10 mg/kg bodyweight), daily, starting at the age of 90 days until the age of 210 days, and monitored daily for several significant humane point indicators including, a) Mouse unable to right itself in 15 sec b) 25% loss of weight on the highest recorded weight c) Full paralysis of one or more hind limbs d) Loss of bladder functions e) Crusty eyes/loss of vision and/or f) Penile prolapse.\nFor weight loss experiments, weight loss was based on highest recorded weight (humane end point).\nFor disease onset experiments, symptom onset was assessed (i.e. loss of 10% body weight based on the highest recorded weight with muscle weakness and time to peak body weight (days), was assessed and monitored daily by trained staff starting at 90 days of age i.e., well before pre-symptom onset of disease also, monitored daily for several significant humane point indicators including a) Mouse unable to right itself in 15 sec b) 25% loss of weight on the highest recorded weight c) Full paralysis of one or more hind limbs d) Loss of bladder functions e) Crusty eyes/loss of vision f) Penile prolapse. One tailed (unpaired t test) was performed to analyse age to reach (10%) loss of body weight."}, "[2]": {"tested_on": "WG37R mice", "assay": "120-day chronic toxicity assessment in WG37R mice", "type": "in vivo", "conditions": "10 mg/kg/day IP daily for 120 days", "experimental": "The WG37R mice were randomly assigned to 2 groups: For the second set of the experiment, a total of 6 animals per group (3 male and 3 female) were used in the study. Group 3: Sham treatment 1 (1:20 DMSO/PBS) and Group 4: NS-1-2 (10 mg/kg body weight). According to requirement of acute toxicity study, 6-10 animals should be used to evaluate the effect of a substance. However, as the new analogues are structurally similar to Edaravone, having a single-dose safety profile of 450 mg/kg, the mortality of the Edaravone analogues at a dose of 10 mg/kg body weight/day was not expected. Considering the above facts, for the present acute study, the proposed minimum number of animals was 6 per group. Morphological alterations, histological changes, and mean body weight assessments for whole set of animals, for both the WG37R control groups (N=5; 1:20, DMSO:PBS) and WG37R treated groups (N=6; NS-1-2; 10 mg/kg bodyweight) were assessed during the 120-day chronic toxicity assessment, by giving daily of 120 IP injection to the mouse at 3 months of age. Only one male mice from group 3 (control) was terminated unexpectedly, and was likely due to an accidental error in injection (discussed with Central Animal Care Services, veterinarians and staff). IP injections may be difficult because of the aggressiveness of mice (particularly the male mice, during physical restraint). […]"}, "[3]": {"conditions": "individual animals, NS-1-2 treatment (N = 10)"}}, "note": "Values joined by “and” are separate entries in the source; they are usually repeats but may differ in a detail not shown here. Equal entries are not always repeated. “Also recorded” adds a separate entry of the source."}
{"smiles": "Cc1cc(B2OC(C)(C)C(C)(C)O2)n(-c2ccccc2)n1", "note": "[NS-1-2, 3-methyl-5-(4,4,5,5-tetramethyl-1,3,2-dioxaborolan-2-yl)-1-phenyl1H-pyrazole]", "values": [{"measurement": "prolongation of survival age or life span versus control (Kaplan-Meier)", "setting": "[1]; 10 mg/kg/day IP from age 90 to 210 days", "value": 14.5, "unit": "days"}, {"measurement": "mean age of survival (humane end point)", "setting": "[1]; 10 mg/kg/day IP from age 90 to 210 days, n=10, FIG. 14", "value": 196.7, "unit": "days"}, {"measurement": "median survival (Kaplan-Meier)", "setting": "[1]; 10 mg/kg/day IP from age 90 to 210 days, n=10, FIG. 15", "value": 199.5, "unit": "days"}, {"measurement": "delay of disease onset versus control (Kaplan-Meier)", "setting": "[1]; age to reach peak body weight", "value": 20, "unit": "days"}, {"measurement": "percentage mean weight loss (humane end point)", "setting": "[1]; based on highest recorded weight, n=10, FIG. 16", "value": 17.55, "unit": "%"}, {"measurement": "Age to reach 10% loss of body weight based on highest recorded weight with muscle weakness", "setting": "[1]; [3]", "value": "199 days and 171 days and 184 days and 180 days and 193 days and 195 days (2×) and 203 days and 196 days and 165 days"}, {"measurement": "Disease Onset: Age to reach peak body weight", "setting": "[1]; [3]", "value": "143 days (2×) and 156 days and 147 days and 154 days and 164 days and 163 days and 188 days and 148 days and 144 days"}, {"measurement": "Treatment G37R (Survival Days) (Humane End Point)", "setting": "[1]; [3]", "value": "201 Days (2×) and 205 Days and 189 Days and 195 Days and 198 Days and 203 Days and 197 Days and 204 Days and 174 Days"}, {"measurement": "25% Loss of Weight Based on Highest Recorded Weight (Humane End Point)", "setting": "[1]; individual animals, above or below the 25% criterion", "value": "Weight Loss <25%"}, {"measurement": "Weight Loss (%)", "setting": "[1]; individual animals, humane end point, based on highest recorded weight", "value": "Weight Loss (%): 17.056; also recorded: Weight Loss (%): 18.91; also recorded: Weight Loss (%): 19.67; also recorded: Weight Loss (%): 20; also recorded: Weight Loss (%): 15.68; also recorded: Weight Loss (%): 18.543; also recorded: Weight Loss (%): 10.122; also recorded: Weight Loss (%): 13.66; also recorded: Weight Loss (%): 18.548; also recorded: Weight Loss (%): 23.34"}, {"measurement": "difference in survival versus control", "setting": "[1]; mean, 10 mg/kg/day IP from age 90 to 210 days", "value": 13.3, "unit": "days"}, {"measurement": "delay of disease onset versus control (10% weight loss)", "setting": "[1]; mouse, in vivo", "value": "around 23.2 days"}, {"measurement": "delay of disease onset versus control (time to peak body weight, mean)", "setting": "[1]; mouse, in vivo", "value": "around 23.6 days"}, {"measurement": "disease onset: mean age (loss of 10% body weight with muscle weakness)", "setting": "[1]; n=10, FIG. 17", "value": 188.1, "unit": "days"}, {"measurement": "disease onset: mean age (time to peak body weight)", "setting": "[1]; n=10, FIG. 18", "value": 155, "unit": "days"}, {"measurement": "median age to reach peak body weight (Kaplan-Meier, printed as median survival)", "setting": "[1]; n=10, FIG. 19", "value": 151, "unit": "days"}, {"measurement": "clinical signs of toxicity compared to vehicle-treated mice", "setting": "[2]", "value": "no clinical signs of toxicity"}, {"measurement": "tolerability", "setting": "[2]", "value": "seemingly tolerated"}]}
